Counter-ions that a name gives are not always drawn.
biological target: HPK1 (Homo sapiens (Human), UniProt Q92918); experiment: HPK1 biochemical enzyme assay (microfluidic mobility shift assay); details: 1.5 nM HPK1, ATP 1 mM final, 30 min preincubation, 60 min at RT, Caliper EZ Reader; read-out: HPK1 1000UMATP caliper IC50
Procedure: HPK1 biochemical enzyme assay: HPK1 enzyme inhibition was measured using a microfluidic mobility shift assay. […] Test compounds were titrated in ten point curves (top final assay concentration 3 μM), and preincubated with enzyme/substrate mix for 30 min prior to initiation of the reaction by addition of ATP (1 mM final concentration) and substrate (1 μM final concentration; Carna Biosciences) diluted in assay buffer supplemented by MgCl2 (final assay concentration of 5 mM). Following 60 min incubation at RT, the reaction was terminated by addition of 60 µl/well termination buffer (Carna Biosciences) and signal determination using aCaliper EZ Reader (Perkin Elmer, UK).
The compound numbers correspond to the compound numbers in Table 1.

Chain of HPK1 (Q92918 whole entry): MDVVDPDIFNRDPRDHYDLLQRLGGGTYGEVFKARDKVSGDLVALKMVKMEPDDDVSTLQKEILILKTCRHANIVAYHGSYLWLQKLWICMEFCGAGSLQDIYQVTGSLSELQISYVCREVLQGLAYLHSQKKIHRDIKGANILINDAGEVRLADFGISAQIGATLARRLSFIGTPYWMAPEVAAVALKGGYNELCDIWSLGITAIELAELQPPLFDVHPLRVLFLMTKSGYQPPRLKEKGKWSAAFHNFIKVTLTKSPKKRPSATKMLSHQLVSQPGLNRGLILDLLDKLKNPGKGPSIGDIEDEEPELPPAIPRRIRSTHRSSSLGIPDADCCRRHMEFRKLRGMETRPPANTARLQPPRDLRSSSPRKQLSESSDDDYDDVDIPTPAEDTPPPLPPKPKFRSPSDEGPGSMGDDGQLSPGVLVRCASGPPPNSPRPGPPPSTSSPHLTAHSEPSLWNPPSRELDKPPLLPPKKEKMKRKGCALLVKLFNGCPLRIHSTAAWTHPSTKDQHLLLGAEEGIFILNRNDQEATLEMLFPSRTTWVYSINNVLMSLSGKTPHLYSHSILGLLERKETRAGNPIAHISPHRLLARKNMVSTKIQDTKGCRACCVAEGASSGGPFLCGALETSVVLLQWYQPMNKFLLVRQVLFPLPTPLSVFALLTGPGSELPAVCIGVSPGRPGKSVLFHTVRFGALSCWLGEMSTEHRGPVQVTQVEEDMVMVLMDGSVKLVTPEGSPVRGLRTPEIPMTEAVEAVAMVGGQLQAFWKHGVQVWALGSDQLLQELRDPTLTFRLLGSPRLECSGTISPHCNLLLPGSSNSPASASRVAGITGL

SMILES | IC50 [nM]
O=C1NCc2c(-c3cnc4cc(F)ccn34)ccc(Nc3ccc(N4CCC(CO)CC4)cn3)c21 [I-204, 4-(7-fluoroimidazo [1,2-a]pyridin-3-yl)-7-[[5-[4-(hydroxymeth-yl]-1-piperipyl]-2-pyripyl]-amino]isoin-dolin-1-one] | < 100
CNC1CCN(c2ccc(Nc3ccc(-c4ccnc5c4ccn5C)c4c3C(=O)NC4)nc2)CC1 [I-62, 7-[[5-[4-(methylamino)-1-piperidyl]-2-pyridyl]amino]-4-(1-methylpyrrolo [2,3-b]pyridin-4-yl)isoindolin-1-one] | < 100
Cc1cc2c(-c3ncc(Nc4ccc(N5CCC[C@@H](C(C)(C)O)C5)cn4)c4c3CNC4=O)ccnc2n1C [I-237, 4-[1,2-dimethylpyrrolo [2,3-b]pyridin-4-yl)-7-[[5-[(3R)-3-(1-hydroxy-1-methyl-ethyl)-1-piperidyl]-2-pyridyl]amino]-2,3-dihydropyrrolo [3,4-c]pyridin-1-one] | 100 to 1000
O=C1NCc2c(-c3cnc4n3CCCCC4)ccc(Nc3ccc(N4CCC(O)CC4)cn3)c21 [I-288, 7-((5-(4-hydroxy-piperidin-1-yl)pyridin-2-yl)amino)-4-(6,7,8,9-tetrahydro-5H-imidazo[1,2-a]azepin-3-yl)isoindolin-1-one] | 100 to 1000
N#Cc1ccn2c(-c3ncc(Nc4ccc(N5CCOCC5)cn4)c4c3CNC4=O)cnc2c1 [I-189, 3-[7-[(5-morpholino-2-pyridyl)-amino]-1-oxo-2,3-dihydropyrrolo [3,4-c]pyridin-4-yl]imidazo[1,2-a]pyridine-7-carbonitrile] | 100 to 1000
O=C1NCc2c(-c3cnc4cc(F)ccn34)ccc(Nc3ccc(C4CCOC4)c(CN4CCCC4)n3)c21 (stereo not shown) [I-505, 4-(7-fluoroimidazo [1,2-a]pyridin-3-yl)-7-[[6-(pyrrolidin-1-ylmethyl)-5-tetrahydrofuran-3-yl-2-pyridyl]amino]isoindolin-1-one] | < 100
COc1cccn2c(-c3ncc(Nc4ccc(N5CCC[C@H](C(C)(C)O)C5)cn4)c4c3CNC4=O)cnc12 [I-461, 7-[[5-[(3S)-3-(1-hydroxy-1-methylethyl)-1-piperipyl]-2-pyridyl]amino]-4-(8-methoxyimi-dazo[1,2-a]pyridin-3-yl)-2,3-dihydro-pyrrolo[3,4-c]pyridin-1-one] | < 100
Cc1ccc2c(-c3ccc(Nc4ccc(N5CCN(C)CC5)cn4)c4c3CNC4=O)c[nH]c2n1 [I-29, 7-[[5-(4-methylpiperazin-1-yl)-2-pyridyl]amino]-4-(6-methyl-1H-pyrrolo[2,3-b]pyridin-3-yl)-isoindolin-1-one] | < 100
CN1C[C@H](c2ccc(Nc3ccc(-c4cnc5cnccn45)c4c3C(=O)NC4)nc2)CC1=O [I-331, (S)-4-(imidazo[1,2-a]pyrazin-3-yl)-7-((5-(1-methyl-5-oxopyrrolidin-3-yl)pyridin-2-yl)amino)isoin-dolin-1-one] | < 100
CC(C)(O)C1CCN(c2ccc(Nc3ccc(-c4cnc5cc(F)ccn45)c4c3C(=O)NC4)nc2)CC1 [I-224] | < 100
CN(C)CC1(O)CCCN(c2ccc(Nc3ccc(-c4cnc5cc(F)ccn45)c4c3C(=O)NC4)nc2)C1 (stereo not shown) [I-385, 7-((5-(3-((dimethylamino)-methyl)-3-hydroxypiperidin-1-yl)pyridin-2-yl)amino)-4-(7-fluoroimidazo [1,2-a]pyridin-3-yl)isoindolin-1-one] | < 100
O=C1NCc2c(-c3cnc4cc(C5CC5)ccn34)ccc(Nc3ccc(N4CCC(O)CC4)cn3)c21 [I-181, 4-(7-cyclopropyl-imidazo[1,2-a]pyridin-3-yl)-7-[[5-(4-hydroxy-1-piperidyl)-2-pyridyl]amino] isoindolin-1-one] | < 100
CN1CCN(c2ccc(Nc3ccc(-c4c(-c5ccccc5)[nH]c5ccccc45)c4c3C(=O)NC4)nc2)CC1 [I-40, 7-[[5-(4-methylpiperazin-1-yl)-2-pyridyl]amino]-4-(2-phenyl-1H-indol-3-yl)isoindolin-1-one] | < 100
O=C1NCc2c(-c3cnc4cc(F)ccn34)ccc(Nc3ccc(N4CC(O)CCC45CC5)cn3)c21 (stereo not shown) [I-395, 4-(7-fluoroimidazo [1,2-a]pyridin-3-yl)-7-((5-(6-hydroxy-4-azaspiro[2.5]octan-4-yl)pyridin-2-yl)amino)isoin-dolin-1-one] | < 100
O=C1NCc2c(-c3cnc4c(F)cccn34)ccc(Nc3ccc(N4CCNCC4)cn3)c21 [I-88, 4-(8-fluoroimidazo [1,2-a]pyridin-3-yl)-7-[(5-piperazin-1-yl-2-pyridyl)amino] isoindolin-1-one] | < 100
Cn1ccc2c(-c3ncc(Nc4cccc(N5CCC6CNCC65)n4)c4c3CNC4=O)ccnc21 (stereo not drawn) [I-472, 7-[[6-(3,3a,4,5,6,6a-hexahydro-2H-pyrrolo[2,3-c]pyrrol-1-yl)-2-pyridyl]amino]-4-(1-methylpyrrolo [2,3-b]pyridin-4-yl)-2,3-dihydropyrrolo [3,4-c]pyridin-l-one] | < 100
O=C1NCc2c(-c3cnc4cnccn34)ccc(Nc3ccc(N4CC[C@H](F)[C@@H](O)C4)cn3)c21 [I-435, 7-((5-((3S,4S)-4-fluoro-3-hydroxypiperidin-1-yl)pyridin-2-yl)amino)-4-(imidazo[1,2-a]pyrazin-3-yl)isoindolin-1-one] | < 100
N#Cc1ccn2c(-c3ccc(Nc4ccc(N5CCOCC5)cn4)c4c3CNC4=O)cnc2c1 [I-183, 3-[7-[(5-morpholino-2-pyridyl)amino]-1-oxo-isoindolin-4-yl]imidazo[1,2-a]pyridine-7-carbonitrile] | < 100
Cn1cc2ncc(-c3ccc(Nc4ccc(N5CCC(O)CC5)cn4)c4c3CNC4=O)c-2cn1 [I-448, 7-((5-(4-hydroxy-piperidin-1-yl)pyridin-2-yl)amino)-4-(6-methyl-6H-pyrrolo[2,3-d]pyridazin-3-yl)isoindolin-1-one] | 100 to 1000
O=C1NCc2c(-c3cnc4cc(F)ccn34)ccc(Nc3ccc([C@H]4CCOC4)c(CN4CC[C@@H](F)C4)n3)c21 (stereo in doubt) [I-741, 4-(7-fluoroimidazo [1,2-a]pyridin-3-yl)-7-((6-(((R)-3-fluoropyrrol-idin-1-yl)methyl)-5-((S)-tetrahydrofur-an-3-yl)pyridin-2-yl)amino)isoin-dolin-1-one] | < 100
Cn1ccc2c(-c3ccc(Nc4ccc(N5CCC[C@@H](O)C5)cn4)c4c3CNC4=O)ccnc21 [I-121, 7-[[5-[(3R)-3-hydroxy-1-piperidyl]-2-pyridyl]amino]-4-(1-methylpyrrolo [2,3-b]pyridin-4-yl)isoindolin-1-one] | < 100

Other lines, results leading:

IC50 [nM] | SMILES
< 100 | CN(C)Cc1nc(Nc2cnc(-c3ccnc4[nH]ccc34)c3c2C(=O)NC3)ccc1[C@@H]1CCOC1 [I-766, (S)-7-((6-((dimethylamino)-methyl)-5-(tetrahydrofuran-3-yl)pyridin-2-yl)amino)-4-(1H-pyrrolo[2,3-b]pyridin-4-yl)-2,3-dihydro-1H-pyrrolo[3,4-c]pyridin-1-one]
< 100 | CN(C)Cc1nc(Nc2ccc(-c3cnc4cc(F)ccn34)c3c2C(=O)NC3)ccc1N1CCC[C@@H](O)C1 [I-524, 7-[[6-[(dimethylamino)-methyl]-5-[(3R)-3-hydroxy-1-piperipyl]-2-pyridyl]amino]-4-(7-fluoroimidazo [1,2-a]pyridin-3-yl)isoindolin-1-one]
< 100 | CN(C)Cc1nc(Nc2cnc(-c3ccnc4c3ccn4C)c3c2C(=O)NC3)ccc1C1CCOCC1 [I-845, 7-[[6-[(dimethylamino)-methyl]-5-tetrahydropyran-4-yl-2-pyridyl]amino]-4-[l-methylpyrrolo [2,3-b]pyridin-4-yl)-2,3-dihydropyrrolo [3,4-c]pyridin-1-one Formic acid salt]
< 100 | C[C@H](c1ccc(Nc2ccc(-c3cnc4cc(F)ccn34)c3c2C(=O)NC3)nc1)N1CCO[C@@H](C)C1 [I-523, 4-(7-fluoroimidazo [1,2-a]pyridin-3-yl)-7-((5-((R)-1-((S)-2-methylmorpho-lino)ethyl)pyr-idin-2-yl)amino) isoin-dolin-1-one]
< 100 | CN(C)Cc1nc(Nc2ccc(-c3cnc4cc(F)ccn34)c3c2C(=O)NC3)ccc1O[C@@H]1CCOC1 [I-533]
< 100 | CN1C[C@@H]2CCN(c3cccc(Nc4cnc(-c5ccnc6c5ccn6C)c5c4C(=O)NC5)n3)[C@@H]2C1 [I-630, 4-(1-methyl-1H-pyrrolo[2,3-b]pyridin-4-yl)-7-((6-((3aS, 6aS)-5-methylhexahy-dropyrrolo[3,4-b]pyrrol-1(2H)-yl)pyridin-2-yl)amino)-2,3-dihydro-1H-pyrrolo[3,4-c]pyridin-1-one]
< 100 | O=C1NCc2c(-c3cnc4cc(F)ccn34)ccc(Nc3ccc(N4CCO[C@H](Cn5ccnc5)C4)cn3)c21 [I-512, 4-(7-fluoroimidazo [1,2-a]pyridin-3-yl)-7-[[5-[(2S)-2-(imidazol-1-ylmethyl)mor-pholin-4-yl]-2-pyridyl]amino] isoindolin-1-one]
< 100 | CN1CC(O)(C2CCCN(c3ccc(Nc4ccc(-c5cnc6cc(F)ccn56)c5c4C(=O)NC5)nc3)C2)C1 (stereo in doubt) [I-679, (S)-4-(7-fluoroimidazo [1,2-a]pyridin-3-yl)-7-((5-(3-(3-hydroxy-1-methylazetidin-3-yl)piperidin-1-yl)pyridin-2-yl)amino)isoin-dolin-1-one]
< 100 | CN(C)Cc1nc(Nc2ccc(-c3cnc4cc(F)ccn34)c3c2C(=O)NC3)ccc1C1(F)CCOCC1 [I-834, 7-((6-((dimethylamino)-methyl)-5-(4-fluorotetrahy-dro-2H-pyran-4-yl)pyridin-2-yl)amino)-4-(7-fluoroimidazo [1,2-a]pyridin-3-yl)isoindolin-1-one]
< 100 | C[C@@H](c1ccc(Nc2ccc(-c3cnc4cc(F)ccn34)c3c2C(=O)NC3)nc1)N(C)C [I-520, (S)-7-((5-(1-(dimethylami-no)ethyl)pyridin-2-yl)amino)-4-(7-fluoroimidazo [1,2-a]pyridin-3-yl)isoindolin-1-one]

From patent publication US11021481B2, “Substituted isoindolin-1-ones and 2,3-dihydro-1h-pyrrolo[3,4-c]pyridin-1-ones as HPK1 antagonists” (Nimbus Saturn, Inc., priority 2019, dated 2021)
